Here are results for 44 compounds from PubChem BioAssay AID2305 (GlaxoSmithKline (GSK), 2010).

For orientation: IC50 means the concentration needed to halve the response being measured. High values mean weaker potency, low ones greater potency.

The experiment concerns P. falciparum 3D7 growth, pLDH absorbance. The experiment in a line: blood-stage malaria parasite growth potency – strain 3D7, dose response (AID 2305).
In turn, `Cc1ccc(Cn2ncc(NC3CCNCC3)c(Cl)c2=O)cc1NC(=O)Nc1ccc(-c2ccccc2)cc1` displayed an IC50 of 660 nM.

For the compound `CCn1ccc2c(N3CCCC3=O)cc(C(=O)N[C@@H](Cc3ccccc3)[C@H](O)CNC3CCCCC3)cc21`, the IC50 came to 120 nM.

`OC(CNCc1ccccc1OCc1ccccc1)c1cccc(I)c1` (centres undefined) had a concentration for half-maximal inhibition (IC50) of 420 nM.

As for `O=C(/C=C/c1ccccc1Cl)Nc1ccc(Br)c(OCCN2CCN(CCN3CCOCC3)CC2)c1`, the IC50 stood at 760 nM.

On to `CN1CCN(CCCN(Cc2cccc(-c3ccc(CNC4CCCC4)cc3)c2)C(=O)CCC2CCCC2)CC1`, for which the IC50 was 760 nM.

With `CC(C)Cn1cc2c(ccc3nc(N)nc(N)c32)n1`, the half-inhibitory concentration (IC50) is 300 nM.

`Cc1ccc(C(NC(=O)Cc2ccccc2)c2ccc3cccnc3c2O)cc1` (centres undefined): the half-inhibitory concentration (IC50) amounted to 620 nM.

The compound `O=C(Nc1ccccc1)Nc1ccc(-n2ccc(C(F)(F)F)n2)cc1` came in with an IC50 of 630 nM.

As for `Cc1cc(Cl)ccc1NC(=O)Nc1ccc2nccc(N3CCN(C)CC3)c2c1`, the IC50 stood at 390 nM.

In the case of `Cc1cc(NC(=O)Nc2ccc(I)c(OCCN(C)C)c2)ccc1Br`, the IC50 was 620 nM.

`COc1ccc(Oc2ccc(Nc3ccnc4ccc(C(F)(F)F)cc34)cc2)cc1OC`: the IC50 amounted to 1060 nM.

In turn, `Fc1ccc2c(NN=Cc3ccccc3F)ccnc2c1` showed a concentration for half-maximal inhibition (IC50) of 560 nM. This IC50 is about 1.9-fold lower than that of the compound before.

Consider `O=C(N[C@@H](CC1CCCCC1)C(=O)NCCN1CCCCC1)c1ccc(O)c(-c2cccc(C(F)(F)F)c2)c1`, for which the half-maximal inhibitory concentration (IC50) came to 830 nM.

`COc1ccc2nc(NC3=NC(c4ccccn4)(c4ccccn4)C(=O)N3C)[nH]c2c1`: the IC50 came to 590 nM.

With `COc1ccc(C[C@H](C)NC[C@H](O)c2cccc(Cl)c2)cc1F`, the 50% inhibitory concentration (IC50) came to 990 nM. Compared with the last compound, the IC50 is about 1.7-fold higher.

In turn, `CS(=O)(=O)Nc1ccc2[nH]cc(C3CCN(CC(O)C4CCN(C(=O)/C=C/c5ccc(Cl)c(Cl)c5)CC4)CC3)c2c1` (centres undefined) showed an IC50 of 1760 nM.

Consider `COc1ccc(Cc2cnc3nc(N)nc(N)c3c2C)cc1`, for which the IC50 came out at 30 nM.

With `COCCN1CCC(N(Cc2ccc(-c3ccc(C(F)(F)F)cc3)cc2)C(=O)Cn2c(CCc3cccc(F)c3F)cc(=O)c3c2CCC3)CC1`, the IC50 was determined as 1320 nM. This IC50 is about 44-fold higher than that of the compound before.

`NC(N)=Nc1cccc(NC(=O)Nc2cccc(N=C(N)N)c2)c1` returned an IC50 of 260 nM.

In the case of `CC1(C)N=C(N)N=C(N)N1c1ccc(I)cc1`, the half-maximal inhibitory concentration (IC50) stood at 40 nM.

In turn, `Fc1ccc2nc(-c3cccc(-c4ccc(CNCc5cnn(-c6ccccc6)n5)cc4)c3)[nH]c2c1` displayed an IC50 of 920 nM.

With `COc1cc2nc(N3CCC(CNC(=O)c4ccc(-c5ccc(Cl)cc5)cc4)CC3)nc(N)c2cc1OC`, the IC50 turned out to be 150 nM.

The compound `CC1CN(c2ccc(C(=O)NCC3CC3)cc2NC(=O)OCc2ccccc2)CC(C)O1` (centres undefined) had an IC50 of 1300 nM.

`O=C(NCCCNc1ccc2ccccc2n1)c1cc2c(Cl)cc(Cl)cc2[nH]1`: the IC50 was determined as 600 nM.

For the compound `CCNc1cc(C)nc(Nc2ccc(NC(=O)c3ccccc3Cl)cc2)n1`, the IC50 worked out at 1010 nM.

`COc1cc2c(cc1N1C[C@@H](C)N[C@@H](C)C1)N(C(=O)c1ccc(-c3ccc(-c4ncc[nH]4)cc3C)cc1)CC2`: the IC50 stood at 720 nM.

The compound `COc1cccc2c(NN=Cc3ccc(Cl)cc3)ccnc12` gave an IC50 of 810 nM. The IC50 values of the last two compounds are within 1.5-fold of each other.

`CCOC(=O)C(NC(=O)Cc1ccccc1)C(C)C` (centres undefined) returned a half-inhibitory concentration (IC50) of 290 nM.

As to `COc1ccc(-c2cccc(NC(=O)c3ccc(Cl)cc3)c2)cc1CN1CCCC1`, the IC50 was 780 nM.

In the case of `COc1cc(C2CCCCC2)c(OC)cc1CC1c2cc(O)c(Cl)cc2CCN1C` (centres undefined), the IC50 was 450 nM.

Turning to `Nc1c2c(nc3ccccc13)C(=Cc1ccc(O)cc1)CCC2`, the IC50 turned out to be 180 nM.

For the compound `CCN(CC)CCOc1ccc(Nc2ncc3cc(-c4c(Cl)cccc4Cl)c(=O)n(C)c3n2)cc1`, the IC50 was 1180 nM. Compared with the last compound, the IC50 is about 6.6-fold higher.

`COc1cc2ccccc2c(OC)c1CNCCCCCCNCc1c(OC)cc2ccccc2c1OC` had a concentration for half-maximal inhibition (IC50) of 990 nM.

Regarding `Cn1ncc2c3c(CCN4CCC(NCc5ccc6c(c5)NC(=O)CO6)CC4)c(Cl)cnc3ccc21`, the 50% inhibitory concentration (IC50) came to 490 nM.

`c1cc(CN2CCN(c3ccncc3)CC2)cc(-c2cccc(-c3nc4ccccc4[nH]3)c2)c1` showed a concentration for half-maximal inhibition (IC50) of 130 nM.

The compound `CN(C)Cc1cccc(-c2cc3c(-c4cnn(C)c4)c(Cl)cnc3[nH]2)c1` showed a half-maximal inhibitory concentration (IC50) of 910 nM.

For the compound `CCCCCCCOc1ccc(NC(=O)Nc2ccc(Cn3ncc(N4CCCNCC4)c(Cl)c3=O)cc2)cc1`, the IC50 amounted to 920 nM.

Compound `COc1ccc(-c2nc(NC(=O)CS(=O)(=O)c3ccccc3)sc2C)cc1` showed a 50% inhibitory concentration (IC50) of 600 nM. Compared with the last compound, the IC50 is about 1.5-fold lower.

As for `Cc1ccc(-c2nc(N3CCN(C(=O)c4ccco4)CC3)c3ccccc3n2)cc1`, the IC50 is 970 nM. Against the preceding compound, the IC50 is about 1.6-fold higher.

In turn, `Fc1cc(Cl)ccc1Nc1ccnc(Nc2ccc3cn[nH]c3c2)n1` showed an IC50 of 740 nM. The IC50 values of the last two compounds are within 1.5-fold of each other.

Turning to `CC(=O)Nc1cc(C(=O)Nc2ccc(C3=NCCN3)cc2)ccc1C(=O)Nc1ccc(C2=NCCN2)cc1`, the IC50 was 130 nM. Compared with the last compound, the IC50 is about 5.7-fold lower.

`O=C(/C=C/c1ccc(Cl)cc1)NCCCCCN1CCC(C(=O)Nc2cccc(Cl)c2)CC1`: the IC50 is 850 nM.

Consider `O=C(/C=C/c1ccc(C(F)(F)F)cc1)NCCCCCN1CCCN(C(=O)Nc2cccc(Cl)c2)CC1`, for which the IC50 is 990 nM.

In turn, `CCCOc1cccc(C(=O)N[C@@H](Cc2ccccc2)[C@H](O)CNCc2cccc(OC)c2)c1` had an IC50 of 740 nM.
